Key:
carnation flowers [1] = assay: Spraying cut carnations with CPAS solution, then 2 ppm ethylene for 24 h; type: in vivo, carnation (Dianthus caryophyllus)
Experimental: Carnation flowers were harvested at the full bloom stage, when the outer petals deflected at right angles to the stem. The flowers were selected for uniformity in terms of flower diameter and placed in tap water. […] The deionized water was used to avoid salt precipitation due to the existence of calcium in tap water. The treatment solution contained a surfactant, Triton-X 100™ (0.05%). Twenty-four hours after the spraying application, the flowers were treated with 2 ppm ethylene for 24 hours. During treatment and during observation of vase-life, the flowers were kept at 22° C. Each treatment was carried out in three replicates, 3 flowers in each replicate.
Carnation flowers were harvested at the full bloom stage, when the outer petals deflected at right angles to the stem. The flowers were selected for uniformity in terms of flower diameter and placed in tap water. The flowers were then sprayed with various concentrations of CPAS (sodium salt) ranging from 15 to 60 ppm dissolved in NaHCO3 (pH 8.2, 20 and 40 mM) in tap water. The treatment solution contained a surfactant, Kinetic® (0.05%). Twenty-four hours after the CPAS spraying application, the flowers were treated with 2 ppm ethylene for 24 hours. During treatment and during observation of vase-life, the flowers were kept 22° C. Each treatment was carried out in three replicates, 3 flowers in each replicate.

carnation flowers [2] = assay: Loading 14-18 h with CPAS, 0-72 h in tap water, then ethylene for 24 h; vase life assessment; type: in vivo, carnation (Dianthus caryophyllus); details: for protection from ethylene-induced senescence: loading 14-18 h, 1.0 ppm ethylene 24 h
Experimental: Carnation flower stems were cut under tap water to the desired lengths (36 and 55 cm). Four flowers per treatment, in groups of two flowers each, were loaded for 14-18 hours in 20 mL of treatment solutions containing 0, 30, 60 and 120 mg L^−1 CPAS in either an aqueous solution containing sodium carbonate/sodium bicarbonate buffer (40 mM, pH=9.5) and 0.025% Tween 20 or an aqueous solution containing K-Phosphate Buffer (40 mM, pH=7.8) and 0.025% Tween 20. At the end of CPAS loading (14-18 hours), groups of treated flowers were transferred into tap water for 0, 24, 48 and 72 hours. The cut flowers were then exposed to 1.0 ppm ethylene for 24 hours. At the end of the ethylene treatment, the flowers were ventilated and left under controlled conditions for additional 11, 10, 9, 8 days, respectively, for vase life assessment. Pictures of were taken 13 days after beginning of the experiment. It is noted that the carnation flowers tested were highly sensitive to ethylene, and therefore exposure to ethylene at an amount of 1.0 ppm was effected.

cut carnation flowers [3] = assay: Delaying senescence of cut carnation flowers: loading 24 h in CPAS solution, then 2 ppm ethylene for 24 h, visual inspection/photographs; type: in vivo, carnation (Dianthus caryophyllus); parameters: key: The result “−” means no ethylene antagonizing effect by visual inspection.; The result “+++” means high ethylene antagonizing effect by visual inspection.; The result “++++” means very high ethylene antagonizing effect by visual inspection; details: CPAS sodium salt 20-120 ppm, 36-55 cm stems
Text: (§1) The ethylene antagonizing effect of composition described herein can be assessed by its effect of delaying senescence of cut plants, such as cut flowers. Some embodiments of the present invention are based on the use of the composition described herein to treat cut flowers for delaying senescence of the cut flowers.
(§2) Cut Flowers: Unless otherwise noted, carnation flowers grown in a greenhouse were harvested at the beginning of flower opening stage, early in the morning, and were immediately brought to the laboratory. The flowers were either processed immediately or stored in a cold room (4° C.) for 1 to 5 days as required.
(§3) Treatment Procedure: The flower stems were cut under tap water to the desired lengths (15 cm-55 cm). Four flowers for each treatment group (of two flowers per each groups) were loaded in a 20 mL aqueous treatment solution (or “loading solution”) for 24 hours. The treatment solution was placed in a 35 mL tube. The loading solutions of CPAS in buffers were prepared in distilled water, as described hereinafter. At the end of CPAS loading, the flowers were transferred to tap water for 1 to 4 days until the cut flowers open. The cut flowers were then exposed to 2 ppm ethylene for 24 hours. Control cut flowers were loaded in a control solution without CPAS in the same manner as the treated cut flowers, and were thereafter exposed to ethylene or air. At the end of ethylene exposure, the flowers were ventilated and left in tap water under controlled conditions (a temperature of 22° C., a relative humidity of 80%, and continuous fluorescent light) for additional 5 days for senescence assessment.

cut carnation flowers [4] = assay: Water uptake of treated cut flowers; details: 60 or 120 ppm CPAS in 20 mM NaHCO3 pH 8.2; 36 cm stems; 48 hours after termination of ethylene exposure (2 ppm, 24 h)
Experimental: Water Uptake: The uptake of water by cut flowers was measured after CPAS loading and after ethylene exposure (exposure to 2 ppm ethylene for 24 hours, unless otherwise indicated). The aqueous treatment solution was maintained at 20 mL by addition of tap water after each treatment.
Aqueous treatment solutions of CPAS were prepared and tested, each of which contained 0, 60 or 120 ppm of CPAS in 20 mM NaHCO3 (pH 8.2). Cut flowers (36 cm long stems) were treated according to the treatment procedure described above.

cut carnation flowers [5] = assay: Delaying senescence of cut carnation flowers: loading 24 h in CPAS solution, then 2 ppm ethylene for 24 h, visual inspection/photographs; type: in vivo, carnation (Dianthus caryophyllus); parameters: key to Results (ethylene antagonizing effect of CPAS by visual inspection): The result “−” means no ethylene antagonizing effect by visual inspection.; The result “+++” means high ethylene antagonizing effect by visual inspection.; The result “++++” means very high ethylene antagonizing effect by visual inspection
Text: as §1, §2, §3

SMILES: O=C([O-])CCC1=CC1.[Na+] [CPAS, 3-cyclopropyl-1-enyl-propanoic acid salt]
- effect on ethylene-induced flower senescence (carnation flowers [1]; 15 ppm CPAS in NaHCO3 pH 8.2 (20 and 40 mM), Kinetic 0.05%, tap water): little effect
- effect on ethylene-induced flower senescence (carnation flowers [1]; 40 ppm CPAS in Na2CO3/NaHCO3 buffer pH 9.2 below 60 mM, Triton-X 100 0.05%, deionized water): little effect
- effect on ethylene-induced flower senescence (carnation flowers [1]; 80 and 120 ppm CPAS in Na2CO3/NaHCO3 buffer pH 9.2, 40 and 60 mM, Triton-X 100 0.05%): significant effect
- delay of flower senescence, tap water versus DI water (carnation flowers [1]; CPAS in NaHCO3 (40 mM) dissolved in tap water compared with DI water): more efficiently
- effect on ethylene-induced flower senescence (carnation flowers [1]; higher CPAS concentrations (up to 60 ppm) in NaHCO3 pH 8.2 (20 and 40 mM), Kinetic 0.05%, tap water): significantly delayed flower senescence
- protection from ethylene-induced senescence (carnation flowers [2]; CPAS 60 and 120 mg L^−1 in K-Phosphate buffer 40 mM pH 7.8, 0.025% Tween 20): almost no protection
- protection from ethylene-induced senescence (carnation flowers [2]; CPAS 60 and 120 mg L^−1 in sodium carbonate/sodium bicarbonate buffer 40 mM pH 9.5, 0.025% Tween 20): significantly protected
- protection with ethylene treatment 2 and 3 days after pretreatment (carnation flowers [2]; CPAS at the two higher concentrations in Na-Carbonate buffer): more protected as the incubation time increases
- resistance to ethylene-induced flower senescence after pretreatment (carnation flowers [2]; ethylene exposure 3 days after pretreatment with CPAS): resistant
- Results (efficacy of CPAS, ethylene antagonizing effect by visual inspection) (cut carnation flowers [3]; Glycine/NaOH buffer 20 mM pH 8.8): −
- Results (efficacy of CPAS, ethylene antagonizing effect by visual inspection) (cut carnation flowers [3]; H3BO3/NaOH buffer 20 mM pH 9.2): −
- Results (efficacy of CPAS, ethylene antagonizing effect by visual inspection) (cut carnation flowers [3]; HCl-TRIS buffer 20 mM pH 8.4): −
- Results (efficacy of CPAS, ethylene antagonizing effect by visual inspection) (cut carnation flowers [3]; Isopropylamine 500-1000 ppm pH 11.0): −
- Results (efficacy of CPAS, ethylene antagonizing effect by visual inspection) (cut carnation flowers [3]; K-Citrate/Citric Ac. buffer 20 mM pH 4.65): −
- Results (efficacy of CPAS, ethylene antagonizing effect by visual inspection) (cut carnation flowers [3]; K-Citrate/Citric Ac. buffer 20 mM pH 5.0 with 2,3-butanedione (500 ppm)): −
- Results (efficacy of CPAS, ethylene antagonizing effect by visual inspection) (cut carnation flowers [3]; K-Citrate/Citric Ac. buffer 20 mM pH 5.0 with EMK (5%)): −
- Results (efficacy of CPAS, ethylene antagonizing effect by visual inspection) (cut carnation flowers [3]; K-Citrate/Citric Ac. buffer 20 mM pH 5.0 with PVP (0.5%)): −
- Results (efficacy of CPAS, ethylene antagonizing effect by visual inspection) (cut carnation flowers [3]; Na2B4O7/NaOH buffer 20 mM pH 9.4): −
- Results (efficacy of CPAS, ethylene antagonizing effect by visual inspection) (cut carnation flowers [3]; Na2CO3/NaHCO3 buffer 40 mM pH 9.2-9.4 with Chloramphenicol 150 μM): ++++
- Results (efficacy of CPAS, ethylene antagonizing effect by visual inspection) (cut carnation flowers [3]; Na2CO3/NaHCO3 buffer 20-80 mM pH 9.2-9.4): ++++
- Results (efficacy of CPAS, ethylene antagonizing effect by visual inspection) (cut carnation flowers [3]; Na-Phosphate buffer 20 mM pH 6.0 + NaHCO3 60-80 mM, pH 7.4): +++
- Results (efficacy of CPAS, ethylene antagonizing effect by visual inspection) (cut carnation flowers [3]; Na-Phosphate buffer 20 mM pH 7.6): −
- Results (efficacy of CPAS, ethylene antagonizing effect by visual inspection) (cut carnation flowers [3]; Na-Phosphate/Citrate buffer 20 mM pH 6.0 + NaHCO3 60-80 mM, pH 7.2): +++
- Results (efficacy of CPAS, ethylene antagonizing effect by visual inspection) (cut carnation flowers [3]; NaHCO3 40 mM pH 8.2 with Chloramphenicol 50 μM): +++
- Results (efficacy of CPAS, ethylene antagonizing effect by visual inspection) (cut carnation flowers [3]; NaHCO3 20-80 mM pH 8.2): +++
- water uptake of flowers (cut carnation flowers [4]): increased water uptake
- senescence of cut flowers (cut carnation flowers [5]; 36 cm stems, 60 and 120 ppm CPAS in Na-phosphate buffer (20 mM) containing NaHCO3 (60 mM), pH 7.2): delayed senescence
- flower senescence (cut carnation flowers [5]; 60 or 120 ppm CPAS in 20 mM Na2CO3/NaHCO3 buffer pH 9.4, 36 cm stems): delayed flower senescence
- flower senescence (cut carnation flowers [5]; 120 ppm CPAS in 20 mM NaHCO3 pH 8.2, 36 cm stems): delayed flower senescence
- Results (ethylene antagonizing effect of CPAS by visual inspection) (cut carnation flowers [5]; CPAS sodium salt 20-120 ppm in Na2CO3/NaHCO3 buffer 20 mM pH 9.2-9.4): ++++
- Results (ethylene antagonizing effect of CPAS by visual inspection) (cut carnation flowers [5]; CPAS sodium salt 20-120 ppm in Na-Phosphate buffer 20 mM pH 7.6): −
- Results (ethylene antagonizing effect of CPAS by visual inspection) (cut carnation flowers [5]; CPAS sodium salt 20-120 ppm in NaHCO3 20 mM pH 8.2): +++
- senescence of cut flowers (cut carnation flowers [5]; CPAS sodium salt 20-160 ppm in Glycine/NaOH buffer 20 mM pH 8.8, 36 cm stems, loading 24 h): no effect
- senescence of cut flowers (cut carnation flowers [5]; CPAS sodium salt 20-160 ppm in H3BO3/NaOH buffer 20 mM pH 9.2, 36 cm stems, loading 24 h): no effect
- senescence of cut flowers (cut carnation flowers [5]; CPAS sodium salt 20-160 ppm in Na2CO3/NaHCO3 buffer 20 mM pH 9.4, 36 cm stems, loading 24 h): showed delayed senescence
- senescence of cut flowers (cut carnation flowers [5]; stem length 15 cm, 40, 60 and 120 ppm CPAS in 20 mM NaHCO3 pH 8.2): showed delayed senescence
- senescence of cut flowers (cut carnation flowers [5]; stem length 36 cm, 120 mM CPAS (so in the source) in 20 mM NaHCO3 pH 8.2): showed delayed senescence
- senescence of cut flowers (cut carnation flowers [5]; stem length 55 cm, 120 mM CPAS (so in the source) in 20 mM NaHCO3 pH 8.2): No delayed senescence
- senescence of cut flowers (cut carnation flowers [5]; stem length 55 cm, 60 or 120 ppm CPAS in 60 mM Na2CO3/NaHCO3 buffer pH 9.4): showed delayed senescence
- senescence of cut flowers (cut carnation flowers [5]; stem length 55 cm, 120 ppm CPAS in 60 mM NaHCO3 pH 8.2): showed delayed senescence

Source: patent US20150223465A1, “COMPOSITION CONTAINING 3-CYCLOPROPYL-1-ENYL-PROPANOIC ACID SALTS AND A CARRIER” (Yissum Research Development Company of the Hebrew …, priority 2012, published 2015)
